These compounds were tested against human muscarinic M3 receptor (Homo sapiens (Human), UniProt P20309) (assay: Binding assay on human muscarinic M3 receptor ([3H]-methyl scopolamine displacement)). Settings: membranes overexpressing human M3 receptor, Ki from IC50 by Cheng-Prusoff, read-out: Binding Affinity to M3 Receptor, Ki.
Experimental: [Experimental Example 1] Binding Assay on Human Muscarinic M3 Receptor
Cell membrane proteins (Perkin Elmer) wherein human muscarinic M3 receptor was overexpressed, [^3H]-methyl scopolamine and test compounds in various concentration were cultured in 0.2 ml of Tris-HCl buffer at 25° C. for 120 minutes. The same was filtered under suction through glass fiber filter (Whatman GF/B), and then the filter was washed 5 times with 1 ml of Tris-HCl buffer. The radioactivity of [^3H]-methyl scopolamine adsorbed on the filter was measured by a liquid scintillation counter. Non-specific binding was evaluated under existence of 5 μM of atropine. Affinity of the compound of the present invention to muscarinic M3 receptor was calculated as the dissociation constant (Ki), which can be calculated from concentration (IC50) of test compounds inhibiting 50% of binding of [^3H]-methyl scopolamine (i.e. labeled ligand) according to Cheng and Prusoff [Cheng and Prusoff, Biochem. Pharmacol., 22, 3099, 1973].

human muscarinic M3 receptor, sequence (P20309 whole entry): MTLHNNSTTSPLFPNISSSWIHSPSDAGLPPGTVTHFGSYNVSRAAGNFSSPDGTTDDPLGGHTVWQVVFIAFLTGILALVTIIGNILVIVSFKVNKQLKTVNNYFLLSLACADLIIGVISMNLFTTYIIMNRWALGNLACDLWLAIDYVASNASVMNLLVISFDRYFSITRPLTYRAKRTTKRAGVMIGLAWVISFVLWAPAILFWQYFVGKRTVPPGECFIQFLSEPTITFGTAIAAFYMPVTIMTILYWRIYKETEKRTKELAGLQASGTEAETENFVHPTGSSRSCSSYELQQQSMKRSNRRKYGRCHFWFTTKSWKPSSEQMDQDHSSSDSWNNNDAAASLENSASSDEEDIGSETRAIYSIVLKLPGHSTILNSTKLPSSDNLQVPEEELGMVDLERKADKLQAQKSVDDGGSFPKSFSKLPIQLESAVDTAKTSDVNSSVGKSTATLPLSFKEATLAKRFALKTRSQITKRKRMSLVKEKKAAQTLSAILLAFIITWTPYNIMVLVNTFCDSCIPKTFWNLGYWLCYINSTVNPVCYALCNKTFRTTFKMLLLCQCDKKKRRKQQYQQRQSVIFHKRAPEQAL

Ki [nM]	SMILES
282	CN1CCC[C@H]1COC(=O)Nc1ccccc1-c1cccc(C#N)c1 [Example 169, (S)-(1-methylpyrrolidin-2-yl)methyl(3′-cyano-[1,1′-biphenyl]-2-yl)carbamate]
71.3	COc1ccc(NC(=O)OCCC2CCCN2C)c(-c2ccc(F)c(Cl)c2)c1 (stereo not shown) [Example 65, 2-(1-Methylpyrrolidin-2-yl)ethyl (3′-chloro-4′-fluoro-5-methoxy-[1,1′-biphenyl]-2-yl)carbamate]
121	COc1ccc(NC(=O)OC[C@@H]2CCCN2C)c(-c2cccc(F)c2)c1 [Example 223, (S)-(1-methylpyrrolidin-2-yl)methyl(3′-fluoro-5-methoxy-[1,1′-biphenyl]-2-yl)carbamate]
94.4	Cc1ccc(NC(=O)OC[C@@H]2CCNC2)c(-c2cccc(F)c2)c1 [Example 87, (R)-pyrrolidin-3-ylmethyl (3′-fluoro-5-methyl-[1,1′-biphenyl]-2-yl)carbamate]
6.98	CN1CCCC1CCOC(=O)Nc1ccc(F)cc1-c1cccc(F)c1 (stereo not shown) [Example 18, 2-(1-methylpyrrolidin-2-yl)ethyl(3′,5-difluoro-[1,1′-biphenyl]-2-yl)carbamate]
1.92	CN1CC[C@@H](COC(=O)Nc2ccccc2-c2cccc(F)c2)C1 [Example 113, (R)-(1-methylpyrrolidin-3-yl)-methyl (3′-fluoro-[1,1′-biphenyl]-2-yl)carbamate]
1060	CCOc1cccc(-c2ccccc2NC(=O)OCCC2CCCN2C)c1 (stereo not shown) [Example 16, 2-(1-methylpyrrolidin-2-yl)ethyl(3′-ethoxy-[1,1′-biphenyl]-2-yl)carbamate]
56.7	Cc1ccc(NC(=O)OCCC2CCCN2C)c(-c2cccc(F)c2)c1 (stereo not shown) [Example 27, 2-(1-methylpyrrolidin-2-yl)ethyl(3′-fluoro-5-methyl-[1,1′-biphenyl]-2-yl)carbamate]
30.4	O=C(Nc1ccccc1-c1cc(F)cc(F)c1)OC[C@H]1CCNC1 [Example 81, (S)-pyrrolidin-3-ylmethyl-(3′,5′-difluoro-[1,1′-biphenyl]-2-yl)carbamate]
53	CN1CCC[C@H]1COC(=O)Nc1ccc(F)cc1-c1cccc(N)c1 [Example 213, (S)-(1-methylpyrrolidin-2-yl)methyl (3′-amino-5-fluoro-[1,1′-biphenyl]-2-yl)carbamate]
574	CN1CCCC1CCOC(=O)Nc1ccccc1-c1ccc(F)c(C(F)(F)F)c1 (stereo not shown) [Example 38, 2-(1-methylpyrrolidin-2-yl)ethyl(4′-fluoro-3′-(trifluoromethyl)-[1,1′-biphenyl]-2-yl)carbamate]
10.7	CN1CC[C@H](COC(=O)Nc2ccccc2-c2cc(F)cc(F)c2)C1 [Example 92, (S)-(1-methylpyrrolidin-3-yl)methyl (3′,5′-difluoro-[1,1′-biphenyl]-2-yl)carbamate]
109	CN1CCCC1CCOC(=O)Nc1ccc(Cl)cc1-c1cc(F)cc(F)c1 (stereo not shown) [Example 69, 2-(1-Methylpyrrolidin-2-yl)ethyl(5-chloro-3′,5′-difluoro-[1,1′-biphenyl]-2-yl)carbamate]
147	CN1CC[C@@H](COC(=O)Nc2ccccc2-c2cccc(CO)c2)C1 [Example 152, (R)-(1-methylpyrrolidin-3-yl)-methyl (3′-(hydroxymethyl)-[1,1′-biphenyl]-2-yl)carbamate]
16.7	CN1CC[C@@H](COC(=O)Nc2ccccc2-c2cccc(N)c2)C1 [Example 154, (R)-(1-methylpyrrolidin-3-yl)methyl(3′-amino-[1,1′-biphenyl]-2-yl)carbamate]
31.8	CN1CCCC1CCOC(=O)Nc1ccccc1-c1ccc(Cl)cc1 (stereo not shown) [Example 7, 2-(1-methylpyrrolidin-2-yl)ethyl(4′-chloro-[1,1′-biphenyl]-2-yl)carbamate]
134	CN1CCCC1CCOC(=O)Nc1ccc(Cl)cc1-c1cc(Cl)cc(Cl)c1 (stereo not shown) [Example 71, 2-(1-Methylpyrrolidin-2-yl)ethyl (3′,5,5′-trichloro-[1,1′-biphenyl]-2-yl)carbamate]
16.8	CN1CCCC1CCOC(=O)Nc1ccccc1-c1cccc(N)c1 (stereo not shown) [Example 33, 2-(1-methylpyrrolidin-2-yl)ethyl(3′-amino-[1,1′-biphenyl]-2-yl)carbamate]
> 1000	CN1CCCC1CCOC(=O)Nc1ccc(O)cc1-c1cc(Cl)cc(Cl)c1 (stereo not shown) [Example 76, 2-(1-methylpyrrolidin-2-yl)ethyl (3′,5′-dichloro-5-hydroxy-[1,1′-biphenyl]-2-yl)carbamate]
77.4	COc1ccc(NC(=O)OC[C@@H]2CCN(C)C2)c(-c2ccc(F)c(Cl)c2)c1 [Example 147, (R)-(1-methylpyrrolidin-3-yl)methyl(3′-chloro-4′-fluoro-5-methoxy-[1,1′-biphenyl]-2-yl)carbamate]

Ki [nM]	SMILES
31	CN1CCCC1CCOC(=O)Nc1cc(F)ccc1-c1cccc(F)c1 (stereo not shown) [Example 24, 2-(1-methylpyrrolidin-2-yl)ethyl(3′,4-difluoro-[1,1′-biphenyl]-2-yl)carbamate]
16.1	CN1CCC[C@H]1COC(=O)Nc1ccccc1-c1cc(F)c(F)cc1F [Example 163, (S)-(1-methylpyrrolidin-2-yl)methyl (2′,4′,5′-trifluoro-[1,1′-biphenyl]-2-yl)carbamate]
4.6	CN1CCC[C@H]1COC(=O)Nc1ccc(F)cc1-c1cc(F)cc(Cl)c1 [Example 210, (S)-(1-methylpyrrolidin-2-yl)methyl(3′-chloro-5,5′-difluoro-[1,1′-biphenyl]-2-yl)carbamate]
60.1	CN1CCC[C@H]1COC(=O)Nc1ccc(F)cc1-c1cc(O)cc(Cl)c1 [Example 216, (S)-(1-methylpyrrolidin-2-yl)methyl(3′-chloro-5-fluoro-5′-hydroxy-[1,1′-biphenyl]-2-yl)carbamate]
> 1000	CN1CC[C@@H](COC(=O)Nc2cc(F)c(F)cc2-c2cccc(Cl)c2)C1 [Example 182, (R)-(1-methylpyrrolidin-3-yl)methyl (3′-chloro-4,5-difluoro-[1,1′-biphenyl]-2-yl)carbamate]
> 1000	CN1CC[C@@H](COC(=O)Nc2ccccc2-c2cccc(C#N)c2)C1 [Example 155, (R)-(1-methylpyrrolidin-3-yl)methyl(3′-cyano-[1,1′-biphenyl]-2-yl)carbamate]
> 1000	CN1CC[C@@H](COC(=O)Nc2ccccc2-c2cccc(C(N)=O)c2)C1 [Example 153, (R)-(1-methylpyrrolidin-3-yl)methyl(3′-carbamoyl-[1,1′-biphenyl]-2-yl)carbamate]
> 1000	Cc1cc(-c2ccccc2NC(=O)OCCC2CCCN2C)cc(C(C)(C)C)c1 (stereo not shown) [Example 37, 2-(1-methylpyrrolidin-2-yl)ethyl(3′-tert-butyl-5′-methyl-[1,1′-biphenyl]-2-yl)carbamate]
34.8	CN1CCCC1CCOC(=O)Nc1ccc(F)cc1-c1cc(O)cc(Cl)c1 (stereo not shown) [Example 57, 2-(1-methylpyrrolidin-2-yl)ethyl(3′-chloro-5-fluoro-5′-hydroxy-[1,1′-biphenyl]-2-yl)carbamate]
931	CN1CCCC1CCOC(=O)Nc1ccccc1-c1cccc(CCCO)c1 (stereo not shown) [Example 29, 2-(1-methylpyrrolidin-2-yl)ethyl(3′-(3-hydroxypropyl)-[1,1′-biphenyl]-2-yl)carbamate]
467	CN1CCCC1CCOC(=O)Nc1ccccc1-c1ccc([N+](=O)[O-])cc1 (stereo not shown) [Example 11, 2-(1-methylpyrrolidin-2-yl)ethyl(4′-nitro-[1,1′-biphenyl]-2-yl)carbamate]
126	CN1CCCC1CCOC(=O)Nc1ccc(F)cc1-c1ccc(Cl)c(F)c1 (stereo not shown) [Example 54, 2-(1-methylpyrrolidin-2-yl)ethyl(4′-chloro-3′,5-difluoro-[1,1′-biphenyl]-2-yl)carbamate]
22.5	CN1CCC[C@H]1COC(=O)Nc1ccc(F)cc1-c1ccc(Cl)cc1 [Example 175, (S)-(1-methylpyrrolidin-2-yl)methyl (4′-chloro-5-fluoro-[1,1′-biphenyl]-2-yl)carbamate]
241	CN1CCC[C@H]1COC(=O)Nc1ccc(F)cc1-c1cccc(O)c1 [Example 179, (S)-(1-methylpyrrolidin-2-yl)methyl(3′-hydroxy-5-fluoro-[1,1′-biphenyl]-2-yl)carbamate]
65.6	CN1CCC[C@H]1COC(=O)Nc1ccccc1-c1cccc(F)c1F [Example 189, (S)-(1-methylpyrrolidin-2-yl)methyl(2′,3′-difluoro-[1,1′-biphenyl]-2-yl)carbamate]
> 1000	CN1CCCC1CCOC(=O)Nc1ccccc1-c1ccccc1O (stereo not shown) [Example 36, 2-(1-methylpyrrolidin-2-yl)ethyl(2′-hydroxy-[1,1′-biphenyl]-2-yl)carbamate]
35.2	Cc1ccc(NC(=O)OC[C@@H]2CCN(C)C2)c(-c2ccccc2)c1 [Example 97, (R)-(1-methylpyrrolidin-3-yl)methyl (5-methyl-[1,1′-biphenyl]-2-yl)carbamate]
42.7	CN1CCC[C@H]1COC(=O)Nc1ccc(F)cc1-c1cc(F)c(F)cc1F [Example 173, (S)-(1-methylpyrrolidin-2-yl)methyl (2′,4′,5,5′-tetrafluoro-[1,1′-biphenyl]-2-yl)carbamate]
37.5	CN1CCCC1CCOC(=O)Nc1ccc(F)cc1-c1cccc(N)c1 (stereo not shown) [Example 46, 2-(1-methylpyrrolidin-2-yl)ethyl(3′-amino-5-fluoro-[1,1′-biphenyl]-2-yl)carbamate]

SMILES	Ki [nM]
CN1CCC[C@H]1COC(=O)Nc1ccc(F)cc1-c1ccc(Cl)cc1Cl [Example 176, (S)-(1-methylpyrrolidin-2-yl)methyl (2′,4′-dichloro-5-fluoro-[1,1′-biphenyl]-2-yl)carbamate]	> 1000

Reference: patent publication US9828339B2, “Biphenyl derivatives and methods for preparing same” (DONG-A ST CO., LTD, priority 2013, dated 2017)
